These results are taken from US7063966B2, “Chimeric G protein coupled receptors” (SRI International, priority 2001, dated 2006).

In general, EC50 refers to the concentration at which the effect is half-maximal.

Holding throughout (type): cell-based
One assay addresses T1, Edg 1/3(ct) (Homo sapiens, UniProt P21453, N315S).
T1 construct: DNA encoding the full length Edg 1/3(ct) chimera was produced in a secondary PCR reaction; expressed in transfected cells
Put plainly: Intracellular calcium mobilization (FLIPR) in HTC4 cells expressing Edg 1/3(ct). To be noted: 100 nM S1P, FIG. 4. Here is the method: (§1) Media from GP-293 cells was collected and filtered through a […] PES syringe filter to remove cell debris. Polybrene (hexadimethrine bromide, Sigma) was added to each virus laden supernatant to a final concentration of […]. After removing the culture medium from the target cells, the virus-laden medium was used to overlay the host cell line HTC4 (rat hepatoma cell line; from Ed Goetzl, UCSF). Following infection, cells were incubated for 18–24 hours. Cells resistant to antibiotic (Geneticin, G418, […], Sigma) were selected. Clonal populations were selected from the pooled stable cells using a standard limiting dilution technique (adapted from “Antibodies: A Laboratory Manual”; 1988, Harlow, E. and Lane, D., Cold Spring Harbor Laboratory, New York).
(§2) HTC4 rat hepatoma cells stably transfected with Edg 1, Edg 1/3(ct), Edg1/3(i3ct) or Edg1/3(i2i3ct) according to Example 6.7 were plated on 384-well plates and loaded with a calcium dye loading kit (Molecular Devices, Sunnyvale, Calif.) for 1 hour at room temperature. Cells were then placed on FLIPR^384 (Molecular Devices, Sunnyvale, Calif.) and excited by an argon laser at 488 nm. In this assay, fluorescence changes over basal levels indicate an increase in intracellular calcium. In FIG. 2, basal fluorescence is at 0 (arbitrary units). […]
For orientation: Calcium flux is commonly read through the fluorescence of an indicator in the cells.

The next assay deals with Edg 1 (Homo sapiens, UniProt P21453). Kind of assay: Intracellular calcium mobilization (FLIPR) in HTC4 cells expressing Edg 1. The conditions noted are these: 100 nM S1P, FIG. 2. The method, then:
as §1, §2

For assay [1], the target named is T2, Edg1/3(i3ct) (Homo sapiens, UniProt P21453, DEL241-247/F237N/K239N/K250R/K256R/L235V/L252M/N315S/R231S/R234K/R238H/T230S/T236A).
T2 construct: DNA encoding the full length Edg 1/3(i3ct) chimera was then produced in a tertiary PCR reaction; expressed in transfected cells
T2 sequence (P21453 with tags, fused parts or gaps with the stated changes): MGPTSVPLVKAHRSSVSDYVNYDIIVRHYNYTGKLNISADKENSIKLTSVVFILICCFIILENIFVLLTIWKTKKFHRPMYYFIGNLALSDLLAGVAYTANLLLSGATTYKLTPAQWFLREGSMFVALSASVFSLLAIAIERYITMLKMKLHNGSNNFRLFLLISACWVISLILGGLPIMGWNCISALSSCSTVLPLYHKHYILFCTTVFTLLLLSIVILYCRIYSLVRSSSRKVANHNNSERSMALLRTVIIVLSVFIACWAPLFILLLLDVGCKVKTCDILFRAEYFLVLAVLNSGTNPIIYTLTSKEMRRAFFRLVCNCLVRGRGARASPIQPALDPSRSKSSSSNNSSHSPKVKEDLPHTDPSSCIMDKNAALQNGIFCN
Put plainly: Intracellular calcium mobilization (FLIPR) in HTC4 cells expressing Edg1/3(i3ct), single concentration. To be noted: 100 nM S1P, FIG. 2. The method, then:
as §1, §2

The next assay addresses T3, Edg5/3(i3ct) (Homo sapiens, UniProt O95136, A221R/A225S/D222K/F113S/H220S/INS224NHNN/K233R/L229M/M223V/P226E/Q227R/R217K/T228S).
T3 construct: DNA encoding the full length Edg 5/3(i3ct) chimera was then produced in a tertiary PCR reaction; expressed in transfected cells
Kind of assay: Intracellular calcium mobilization (FLIPR) in HTC4 cells expressing Edg5/3(i3ct). The conditions noted are these: 100 nM S1P, FIG. 5. Here is the method: as §1
(§3) HTC4 rat hepatoma cells stably transfected with Edg5/3(i3ct) and Edg8/4(ct) according to Example 6.7 were plated on 384-well plates and loaded with a calcium dye loading kit (Molecular Devices, Sunnyvale, Calif.) for 1 hour at room temperature. Cells were then placed on FLIPR^384 (Molecular Devices, Sunnyvale, Calif.) and excited by an argon laser at 488 nm. In this assay, fluorescence changes over basal levels indicate an increase in intracellular calcium. […] The cells were contacted with 100 nM of the Edg 5 and Edg 8 agonist sphingosine-1-phosphate (S1P) 50 seconds after the start of the assay.

A further assay addresses T4, Edg1/3(i2i3ct) (Homo sapiens, UniProt P21453, DEL241-247/F158H/F237N/G154A/H152Y/I144L/K150R/K239N/K250R/K256R/L147I/L151P/L235V/L252M/N153D/N156K/N157R/N315S/R231S/R234K/R238H/S155N/T230S/T236A/Y143H).
T4 construct: DNA encoding the full length Edg 1/3(i2i3ct) chimera was then produced in a tertiary PCR reaction; expressed in transfected cells
Kind of assay: Intracellular calcium mobilization (FLIPR) in HTC4 cells expressing Edg1/3(i2i3ct). To be noted: 100 nM S1P, FIG. 2. The method, then: as §1, §2

Assay [2] addresses T2, Edg1/3(i3ct). Kind of assay: Dose response of intracellular calcium mobilization (FLIPR) in HTC4 cells expressing chimeric Edg1/3(i3ct).
In another assay the target is T5, Edg8/4(ct) (Homo sapiens, UniProt Q9H228).
T5 construct: DNA encoding the full length Edg 8/4(ct) chimera was produced in a secondary PCR reaction; expressed in transfected cells
T5 sequence (Q9H228 with tags, fused parts or gaps): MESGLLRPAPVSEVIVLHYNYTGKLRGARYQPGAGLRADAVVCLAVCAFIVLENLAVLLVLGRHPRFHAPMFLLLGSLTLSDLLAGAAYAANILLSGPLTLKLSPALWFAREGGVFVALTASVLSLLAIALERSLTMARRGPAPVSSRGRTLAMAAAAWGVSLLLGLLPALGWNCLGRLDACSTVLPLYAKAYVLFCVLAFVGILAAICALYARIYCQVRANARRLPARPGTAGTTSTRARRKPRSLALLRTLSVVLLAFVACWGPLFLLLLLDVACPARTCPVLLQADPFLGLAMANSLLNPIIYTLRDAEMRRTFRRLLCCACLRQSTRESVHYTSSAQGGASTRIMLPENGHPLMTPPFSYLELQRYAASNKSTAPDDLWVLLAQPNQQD
Put plainly: Intracellular calcium mobilization (FLIPR) in HTC4 cells expressing Edg8/4(ct). To be noted: 100 nM S1P, FIG. 5. The method, then:
as §1, §3

Read-outs that look alike come from different tables or passages of the source.

Chain of Edg 1 (P21453 whole entry): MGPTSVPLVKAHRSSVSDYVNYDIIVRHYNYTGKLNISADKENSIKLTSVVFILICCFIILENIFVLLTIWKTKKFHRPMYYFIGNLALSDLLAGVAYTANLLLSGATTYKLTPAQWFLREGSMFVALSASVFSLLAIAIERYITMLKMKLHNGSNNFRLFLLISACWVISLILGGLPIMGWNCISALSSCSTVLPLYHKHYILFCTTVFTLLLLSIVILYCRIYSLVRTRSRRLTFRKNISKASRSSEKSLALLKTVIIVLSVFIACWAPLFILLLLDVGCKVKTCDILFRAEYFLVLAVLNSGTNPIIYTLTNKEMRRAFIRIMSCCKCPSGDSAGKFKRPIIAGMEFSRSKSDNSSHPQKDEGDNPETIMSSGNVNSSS
T4 sequence (P21453 with tags, fused parts or gaps with the stated changes): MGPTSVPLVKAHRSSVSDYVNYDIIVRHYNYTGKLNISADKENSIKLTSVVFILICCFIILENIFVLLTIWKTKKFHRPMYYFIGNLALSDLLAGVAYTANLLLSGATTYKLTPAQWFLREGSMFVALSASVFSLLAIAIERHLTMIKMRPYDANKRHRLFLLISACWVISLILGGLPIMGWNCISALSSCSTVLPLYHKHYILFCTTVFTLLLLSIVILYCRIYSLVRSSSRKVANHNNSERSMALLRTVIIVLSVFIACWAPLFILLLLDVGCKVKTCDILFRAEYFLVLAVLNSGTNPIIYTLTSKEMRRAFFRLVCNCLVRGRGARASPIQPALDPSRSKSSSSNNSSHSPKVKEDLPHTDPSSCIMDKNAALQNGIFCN
T3 sequence (O95136 with tags, fused parts or gaps with the stated changes): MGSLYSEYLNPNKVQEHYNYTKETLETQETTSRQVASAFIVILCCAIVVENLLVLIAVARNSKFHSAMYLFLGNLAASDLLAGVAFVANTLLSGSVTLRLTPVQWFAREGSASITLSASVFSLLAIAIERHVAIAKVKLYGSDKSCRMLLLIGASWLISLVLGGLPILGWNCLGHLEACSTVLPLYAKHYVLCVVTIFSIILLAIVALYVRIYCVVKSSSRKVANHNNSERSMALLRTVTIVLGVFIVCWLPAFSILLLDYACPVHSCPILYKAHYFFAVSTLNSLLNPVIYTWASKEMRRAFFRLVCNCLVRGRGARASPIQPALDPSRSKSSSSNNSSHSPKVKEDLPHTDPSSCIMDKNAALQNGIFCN
T1 sequence (P21453 with tags, fused parts or gaps N315S): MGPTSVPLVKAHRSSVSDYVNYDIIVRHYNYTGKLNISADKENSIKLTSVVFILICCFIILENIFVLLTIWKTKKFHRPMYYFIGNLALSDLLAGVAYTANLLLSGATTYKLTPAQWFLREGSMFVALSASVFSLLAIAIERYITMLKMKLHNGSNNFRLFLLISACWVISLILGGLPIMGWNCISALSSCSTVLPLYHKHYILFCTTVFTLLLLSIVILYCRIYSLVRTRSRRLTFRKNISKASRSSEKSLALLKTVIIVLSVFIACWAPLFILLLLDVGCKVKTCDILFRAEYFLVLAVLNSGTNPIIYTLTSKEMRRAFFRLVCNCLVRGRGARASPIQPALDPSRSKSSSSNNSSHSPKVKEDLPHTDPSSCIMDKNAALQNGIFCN

Take `CCCCCCCCCCCCC/C=C/[C@@H](O)[C@@H](N)COP(=O)(O)O` [S1P, sphingosine-1-phosphate]: the intracellular calcium mobilization result on Edg 1/3(ct) is reported as “functional, although not as robust as Edg1/3(i3ct) or Edg1/3(i2i3ct)”; on Edg5/3(i3ct), “mobilize intracellular calcium”; on Edg8/4(ct) it was “mobilize intracellular calcium”. Also, the “change in intracellular calcium” value is “no change in intracellular calcium” on Edg 1, “significant change in intracellular calcium” on Edg1/3(i3ct) [1] and “significant change in intracellular calcium” at Edg1/3(i2i3ct). Moreover, at Edg1/3(i3ct) [2], the EC50 is ~0.01 µM.

Take `CCCCCCCCCCCCCCC[C@@H](O)[C@@H](N)COP(=O)(O)O` [dihydro S1P, dihydro sphingosine-1-phosphate]: on Edg1/3(i3ct) [2] (HTC4 rat hepatoma cells stably transfected with Edg1/3(i3ct), FIG. 3, read-out: EC50 of intracellular calcium mobilization), the EC50 was ~0.01 µM.
